# From PubChem BioAssay AID1259418 (Broad Institute, 2018)
# “And” between values parts separate entries of the source, which are not always exact repeats. Equal values may be shown once. Results filed as inconclusive are left out. The source made the active and inactive calls.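 The calls were made as follows: active = fitted half-maximal concentration of signal decrease at or below twice the sample's top tested concentration; inconclusive = flat curve between -70 and -30 percent, or poor fit; inactive = flat within 30 percent, signal rise, or potency above limit.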
# Molecular target: T. gondii ME49Luc in IFN-y HeLa, luciferase, 72 h
# Assay: inhibitors of Toxoplasma growth in IFN-γ-primed HeLa – cell-based, ME49Luc, luciferase, 72 h, dose response (AID 1259418)
row,Compound,AC50
1,CCc1nc(OCC(=O)Nc2cccc(Br)c2)c2ccccc2n1,> 39000 nM (inactive)
2,CC(C)Cc1ccc(S(=O)(=O)N2CCC[C@@H]2C(=O)NCCc2csc(-c3ccccc3)n2)cc1,12400 nM
3,Cn1cnc(S(=O)(=O)N2CCCCN3[C@H](CO)[C@H](c4ccc(C5=CCCCC5)cc4)[C@@H]3C2)c1,18400 nM and 20200 nM
4,COc1ccccc1Cn1ncc2c1CCCC2NC(=O)c1cc(-c2cccs2)no1 (stereo not given),14100 nM
5,CC(C)CCN1Cc2c(C(=O)Nc3cccc(F)c3)ncn2-c2ccccc2S1(=O)=O,13000 nM
6,CC(C)C#Cc1ccc([C@H]2[C@@H](CO)N3C(=O)CN(C(=O)NC4CCCC4)C[C@H]23)cc1,> 39000 nM (inactive)
7,COc1cccc(-c2nc3c(s2)CN(S(=O)(=O)c2ccc(C)cc2)CC3)c1,25900 nM
8,CCc1nc(OCC(=O)Nc2ccc(Cl)cc2Cl)c2ccccc2n1,30000 nM
9,Cc1ccc(CNc2nc(-c3ccc(Cl)cc3)nc3ccccc23)cc1,37000 nM
10,O=C(c1cccc2[nH]ccc12)N1CCCC1c1nc(-c2cccc(Cl)c2)no1 (stereo not given),23300 nM
11,Cc1nnsc1CN(C)Cc1[nH]c2ccc(F)cc2c1C,> 39000 nM (inactive)
12,O=C(CC1N=C2c3ccccc3N=C(SCc3cccc(Cl)c3)N2C1=O)NCCc1ccccc1 (stereo not given),19300 nM
13,C/C=C/c1ccc([C@H]2[C@H](CO)N3CCCCN(S(=O)(=O)c4ccc(OC)cc4)C[C@@H]23)cc1,> 39000 nM (inactive)
14,O=C(CCC1N=C2c3ccccc3N=C(SCc3ccc(F)cc3)N2C1=O)NCc1ccc(F)cc1 (stereo not given),> 39000 nM (inactive)
15,Cc1ccccc1-c1ccc([C@@H]2[C@@H](CO)N3CCCCN(S(=O)(=O)Cc4ccccc4)C[C@H]23)cc1,19800 nM
16,O=S(=O)(c1cccs1)N1CCCCN2[C@H](CO)[C@H](c3ccc(/C=C/c4ccccc4)cc3)[C@@H]2C1,18800 nM
17,c1ccc2c(Oc3nc(Nc4ccc(N5CCOCC5)cc4)c4ncn(C5CCCCC5)c4n3)cccc2c1,16400 nM
18,C/C=C/c1ccc([C@H]2[C@@H](CO)N3CCCCN(S(=O)(=O)c4ccc(OC)cc4)C[C@H]23)cc1,15700 nM
19,COCCN(CCOC)C(=O)c1cc2c(c3ccccc3n2CC2CC2)n1-c1ncccn1,28000 nM
20,COc1ccccc1NC(=O)N1C[C@@H]2N[C@H](C1)C2c1ccc(/C=C/c2ccccc2)cc1 (stereo not given in full),6840 nM and 4450 nM and 4220 nM
21,CCOc1ccccc1-c1nc(CN(c2cccc(OC)c2)S(=O)(=O)c2ccc(C)cc2)c(C)o1,9590 nM
22,COc1ccccc1C#Cc1ccc([C@@H]2[C@@H](CO)N3CCCCN(C(=O)C4CCC4)C[C@H]23)cc1,28800 nM and 14600 nM

row,Compound,AC50
1,O=C(C[C@H]1CC[C@H]2[C@@H](COC[C@H](O)CN2Cc2ccc(Oc3ccccc3)cc2)O1)N1CCN(c2ccccc2)CC1,12100 nM and 21200 nM
2,Cc1ccc(-c2csc(-c3cccn3CC(=O)NCCN3CCC(C)CC3)n2)cc1,6430 nM
3,COc1ccccc1S(=O)(=O)N1CC[C@@H]2[C@H]1c1cc(-c3cccc(C#N)c3)ccc1N(C)[C@H]2CO,18900 nM
4,CCc1cnc(N2[C@H](C#N)[C@@H](c3ccc(C#Cc4ccccc4F)cc3)[C@H]2CO)s1,20500 nM and 6210 nM
5,CCOc1ccccc1N(Cc1nc(-c2ccc(OC)cc2)oc1C)S(=O)(=O)c1cccs1,7450 nM
6,CCc1cnc(N2[C@@H](C#N)[C@@H](c3ccc(C4=CCCCC4)cc3)[C@@H]2CO)s1,> 20 µM (inactive) and 8.88 µM
7,O=C(Nc1ccc(F)cc1)N1CC(=O)N2[C@H](C1)[C@@H](c1ccc(-c3cccc(F)c3)cc1)[C@@H]2CO,8500 nM and 5040 nM
8,COc1cccc(CNC2=NCCNC23CCN(S(=O)(=O)c2ccc(Cl)s2)CC3)c1,11600 nM
9,CCc1cnc(N2[C@H](CO)[C@@H](c3ccc(C#Cc4ccccc4F)cc3)[C@@H]2C#N)s1,21300 nM
10,Cc1ccc(CNC(=O)COc2nc(C)nc3ccccc23)cc1,> 39000 nM (inactive)
11,CCOc1ccccc1NS(=O)(=O)c1cc2c3c(c1)CCC(=O)N3CCC2,26100 nM
12,O=C(NC1CCCCC1)N1C[C@@H]2N[C@H](C1)C2c1ccc(-c2ccc(F)cc2)cc1 (stereo not given in full),22700 nM
13,Cc1cc(C(F)(F)F)nn1CC(=O)N1CCCC1c1cc(C(C)C)on1 (stereo not given),32600 nM
14,O=C(CCC1N=C2c3ccccc3N=C(SCc3cccc(F)c3)N2C1=O)NCc1cccs1 (stereo not given),20300 nM
15,COc1ccc(-c2ccc(C3[C@@H]4CN(C(=O)c5ccc(F)cc5)C[C@H]3N4)cc2)cc1 (stereo not given in full),15800 nM and 11300 nM
16,CN(C)C(=O)c1ccc(-c2ccc3c(c2)[C@@H]2[C@@H](CCN2C(=O)C2CCCC2)[C@H](CO)N3C)cc1,20600 nM
17,O=C(Cc1cccnc1)N1CC(=O)N2[C@H](CO)[C@H](c3ccc(C#CC4CCCCC4)cc3)[C@@H]2C1,17900 nM
18,Cc1ccccc1-c1ccc([C@H]2[C@H](CO)N3C(=O)CN(C(=O)c4ccncc4)C[C@@H]23)cc1,21500 nM
19,CC(C)(C)CC(C)(C)c1ccc(OCCOCC[N+](C)(C)Cc2ccccc2)cc1,15600 nM
20,Cc1ccc(-c2noc(-c3ccc(N4CCC(N5CCCCC5)CC4)nc3)n2)cc1,24800 nM
21,N#Cc1ccc(-c2ccc(C3[C@@H]4CN(S(=O)(=O)c5ccc(F)cc5)C[C@H]3N4)cc2)cc1 (stereo not given in full),12100 nM and 13800 nM
22,Cc1ccc(C(=O)Nc2c(C(=O)NCc3ccccn3)[nH]c3ccc(C)cc23)cc1,25300 nM

row,Compound,AC50
1,CCc1ccc(S(=O)(=O)N2CCC3(CC2)NCCN=C3NC2CCCCCC2)cc1,5050 nM
2,Fc1ccc(CSc2nc(NCc3ccc(Cl)cc3)c3ccccc3n2)cc1,16000 nM
3,O=C(Nc1cccc(F)c1)N1CCCCN2[C@H](CO)[C@H](c3ccc(C#Cc4cccnc4)cc3)[C@H]2C1,19300 nM
4,O=C(Cc1ccncc1)N1CCCCN2[C@@H](CO)[C@@H](c3ccc(C#Cc4ccccc4F)cc3)[C@@H]2C1,20900 nM and 12300 nM
5,N#Cc1ccc(-c2ccc([C@@H]3[C@@H]4CN(S(=O)(=O)Cc5ccccc5)C[C@H]3N4)cc2)cc1,6550 nM and 15500 nM
6,O=C(C[C@@H]1CC[C@@H]2[C@H](COC[C@@H](O)CN2Cc2ccc(Oc3ccccc3)cc2)O1)N1CCN(c2ccccc2)CC1,20700 nM
7,Cc1nc(-c2cc(S(=O)(=O)NCCCN3CCCC(C)C3)c(C)s2)sc1C (stereo not given),33700 nM
8,COc1ccc(-c2nc(N3CCOCC3)c3ccccc3n2)cc1,36100 nM
9,O=C(Nc1ccc2c(c1)OCO2)N1C[C@@H]2N[C@H](C1)C2c1ccc(C=Cc2ccccc2)cc1 (stereo not given in full),4200 nM and 3840 nM
10,C[C@H](CO)N1C[C@H](C)[C@H](CN(C)C(=O)c2cc(Cl)cc(Cl)c2)OCc2ccccc2-c2c(n(C)c3ccccc23)C1=O,9220 nM
11,O=S(=O)(c1ccc2c(c1)CCCC2)N1CCC2(CC1)NCCN=C2NCc1ccc(F)cc1,9400 nM
12,CN1C(=O)CCc2cc(NC(=O)Cc3ccc(Cl)cc3)ccc21,23800 nM
13,CCCNC(=O)N1[C@H](CO)[C@@H](c2ccc(-c3ccccc3F)cc2)[C@@H]1C#N,19900 nM
14,COc1ccc(-c2nc(CN(c3ccccc3)S(=O)(=O)c3ccccc3)c(C)o2)cc1,9080 nM
15,CC(C)CNc1nc2c(cc1C(=O)NC(C)C)CCN(c1ccncn1)CC2,26500 nM
16,CC(C)CNc1nc2c(cc1C(=O)NCC1CC1)CCN(c1ccncn1)CC2,19000 nM
17,COc1cccc(CN2CCCCN3[C@@H](CO)[C@@H](c4ccc(-c5ccccc5OC)cc4)[C@@H]3C2)c1,16400 nM and 13400 nM
18,N#C[C@H]1[C@H](c2ccc(C#Cc3ccccc3F)cc2)[C@@H](CO)N1C(=O)c1cccnc1,> 39000 nM (inactive)
19,COCCC(=O)C1Cc2nc(-c3ccccc3)sc2N1CC1CC1 (stereo not given),27200 nM and 15500 nM
20,CCOc1ccc(-c2nc(CN3CCN(C(=O)Nc4ccc(Cl)cc4)CC3)c(C)o2)cc1,5170 nM
21,Cc1cccc(S(=O)(=O)N2CCc3nc(-c4cnn(C)c4)nc(NC4CC4)c3C2)c1,19000 nM
